The results in this text go back to PubChem BioAssay AID248 (DTP/NCI, 2004).

Several values for one entry are separate records, joined by “and”; a condition that tells them apart may be missing. Equal values may be shown once. Toxic doses and inconclusive results are not listed.

For the experiment, the system named is L1210 leukemia ip in BDF1 mice, survival T/C. Briefly: NCI In Vivo Anticancer Drug Screen. Data for tumor model L1210 Leukemia (intraperitoneal) in B6D2F1 (BDF1) mice. Particulars: endpoint: mean survival time, higher = longer survival. The procedure, abridged: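 Mice bearing the transplanted tumor received compound or vehicle. Survival of the treated group was divided by that of the vehicle-treated control group to give the ratio.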

The mark [1] stands for this setting: dose: 100.0 mg/kg/injection, schedule: Q04DX003 (ip), vehicle: saline.
Setting [2] is: dose: 200.0 mg/kg/injection, schedule: Q04DX003 (ip), vehicle: saline.
[3] abbreviates: dose: 400.0 mg/kg/injection, schedule: Q04DX003 (ip), vehicle: saline.
[4] abbreviates: dose: 100.0 mg/kg/injection, schedule: Q01DX009 (ip), vehicle: Klucel (hydroxypropylcellulose) (HPC).
Setting [5] is: dose: 400.0 mg/kg/injection, schedule: Q01DX009 (ip), vehicle: Klucel (hydroxypropylcellulose) (HPC).
Where [6] appears, read: dose: 25.0 mg/kg/injection, schedule: Q01DX009 (ip), vehicle: Klucel (hydroxypropylcellulose) (HPC).
Setting [7] is: dose: 100.0 mg/kg/injection, schedule: Q04DX003 (ip), vehicle: saline with Tween-80.
Setting [8] is: dose: 200.0 mg/kg/injection, schedule: Q04DX003 (ip), vehicle: saline with Tween-80.
[9] abbreviates: dose: 200.0 mg/kg/injection, schedule: Q01DX009 (ip), vehicle: Klucel (hydroxypropylcellulose) (HPC).

`O=C(NCCCOc1ccc([N+](=O)[O-])cc1Cl)Nc1ccc(S(=O)(=O)F)cc1`: the T/C is, setting by setting: (dose: 75.0 mg/kg/injection, schedule: Q01DX001 (ip), vehicle: carboxymethylcellulose (CMC)) 98 % of control; under setting [1], 103 % of control; (dose: 150.0 mg/kg/injection, schedule: Q01DX001 (ip), vehicle: carboxymethylcellulose (CMC)) 89 % of control; under setting [2], 103 % of control; (dose: 300.0 mg/kg/injection, schedule: Q01DX001 (ip), vehicle: carboxymethylcellulose (CMC)) 87 % of control; under setting [3], 105 % of control.

Take `BrCC(Br)=C(Br)Br`: the T/C is 105 % of control (dose: 6.0 mg/kg/injection, schedule: Q04DX003 (ip), vehicle: Klucel (hydroxypropylcellulose) (HPC)); 88 % of control (dose: 12.0 mg/kg/injection, schedule: Q01DX001 (ip), vehicle: Klucel (hydroxypropylcellulose) (HPC)); 91 % of control (dose: 12.0 mg/kg/injection, schedule: Q04DX003 (ip), vehicle: Klucel (hydroxypropylcellulose) (HPC)); 97 % of control and 101 % of control (dose: 25.0 mg/kg/injection, schedule: Q01DX001 (ip), vehicle: Klucel (hydroxypropylcellulose) (HPC)); 91 % of control (dose: 25.0 mg/kg/injection, schedule: Q04DX003 (ip), vehicle: Klucel (hydroxypropylcellulose) (HPC)); 93 % of control and 90 % of control (dose: 50.0 mg/kg/injection, schedule: Q01DX001 (ip), vehicle: Klucel (hydroxypropylcellulose) (HPC)). For the setting “dose: 100.0 mg/kg/injection, schedule: Q01DX001 (ip), vehicle: Klucel (hydroxypropylcellulose) (HPC)”, the T/C was 97 % of control.

Turning to `ClC12CCC(CC1)C2`, the T/C was 96 % of control (dose: 100.0 mg/kg/injection, schedule: Q04DX002 (ip), vehicle: saline); 104 % of control (dose: 200.0 mg/kg/injection, schedule: Q04DX002 (ip), vehicle: saline); 93 % of control (dose: 400.0 mg/kg/injection, schedule: Q04DX002 (ip), vehicle: saline).

As for `CCOc1ccc(NC(=O)Nc2cccc(Cl)c2)cc1`, the T/C is 103 % of control under setting [4]; 95 % of control (dose: 100.0 mg/kg/injection, schedule: Q04DX003 (ip), vehicle: Klucel (hydroxypropylcellulose) (HPC)); 103 % of control (dose: 200.0 mg/kg/injection, schedule: Q04DX003 (ip), vehicle: Klucel (hydroxypropylcellulose) (HPC)); 87 % of control under setting [5]; 100 % of control (dose: 400.0 mg/kg/injection, schedule: Q04DX003 (ip), vehicle: Klucel (hydroxypropylcellulose) (HPC)).

Turning to `CCN(CC)CCOC(=O)C1CC1(c1ccccc1)c1ccccc1` (stereo unspecified), the T/C reads like this: under setting [6], 98 % of control; (dose: 50.0 mg/kg/injection, schedule: Q01DX009 (ip), vehicle: Klucel (hydroxypropylcellulose) (HPC)) 87 % of control; under setting [4], 95 % of control and 98 % of control.

For `Cc1cc(Cl)ccc1OCC(=O)NCC(=O)O`, the T/C is, setting by setting: (dose: 100.0 mg/kg/injection, schedule: Q04DX002 (ip), vehicle: Klucel (hydroxypropylcellulose) (HPC)) 90 % of control; (dose: 200.0 mg/kg/injection, schedule: Q04DX002 (ip), vehicle: Klucel (hydroxypropylcellulose) (HPC)) 97 % of control; (dose: 400.0 mg/kg/injection, schedule: Q04DX002 (ip), vehicle: Klucel (hydroxypropylcellulose) (HPC)) 105 % of control.

In the case of `C[S+]1Cc2ccccc2C1`, the T/C is 106 % of control under setting [7] and 104 % of control under setting [8].

On to `Cc1ccc(/C([O-])=C(\C(=S)Nc2cccc(Cl)c2)[n+]2ccccc2)cc1`, for which the T/C under setting [4] is 104 % of control, the T/C under setting [9] was 95 % of control and the T/C under setting [5] was 108 % of control.

Regarding `CC(=O)Nc1ccc(S(=O)(=O)N(C)Cc2ccccc2)cc1`, the T/C under setting [4] was 94 % of control, the T/C under setting [9] is 102 % of control and the T/C under setting [5] was 107 % of control.

As for `O=C1Nc2c(ccc3ccccc23)/C1=C/c1ccccc1`, the T/C is 100 % of control under setting [7]; 100 % of control under setting [8]; 97 % of control (dose: 400.0 mg/kg/injection, schedule: Q04DX003 (ip), vehicle: saline with Tween-80).

As to `Cc1c2cnccc2c(C)c2c1c1ccccc1n2CC1CO1` (stereo unspecified), the T/C is, setting by setting: (dose: 0.78 mg/kg/injection, schedule: Q01DX009 (ip), vehicle: Klucel (hydroxypropylcellulose) (HPC)) 90 % of control; (dose: 1.56 mg/kg/injection, schedule: Q01DX009 (ip), vehicle: Klucel (hydroxypropylcellulose) (HPC)) 97 % of control; (dose: 1.56 mg/kg/injection, schedule: Q01DX009 (ip), vehicle: saline with Tween-80) 113 % of control; (dose: 3.12 mg/kg/injection, schedule: Q01DX009 (ip), vehicle: Klucel (hydroxypropylcellulose) (HPC)) 100 % of control; (dose: 3.13 mg/kg/injection, schedule: Q01DX009 (ip), vehicle: saline with Tween-80) 110 % of control; (dose: 4.12 mg/kg/injection, schedule: Q01DX009 (ip), vehicle: Klucel (hydroxypropylcellulose) (HPC)) 120 % of control. Moreover, the T/C (dose: 6.25 mg/kg/injection, schedule: Q01DX009 (ip), vehicle: Klucel (hydroxypropylcellulose) (HPC)) is 94 % of control and 122 % of control; the T/C (dose: 6.25 mg/kg/injection, schedule: Q01DX009 (ip), vehicle: saline with Tween-80) is 113 % of control; the T/C (dose: 6.25 mg/kg/injection, schedule: Q04DX003 (ip), vehicle: saline) is 110 % of control; the T/C (dose: 12.5 mg/kg/injection, schedule: Q01DX009 (ip), vehicle: Klucel (hydroxypropylcellulose) (HPC)) was 113 % of control; the T/C (dose: 12.5 mg/kg/injection, schedule: Q01DX009 (ip), vehicle: saline with Tween-80) is 120 % of control; the T/C under setting [6] is 119 % of control and 86 % of control. The T/C is, setting by setting: (dose: 25.0 mg/kg/injection, schedule: Q04DX003 (ip), vehicle: saline) 123 % of control; (dose: 65.0 mg/kg/injection, schedule: Q04DX003 (ip), vehicle: saline) 108 % of control and 117 % of control; under setting [1], 104 % of control and 114 % of control; (dose: 150.0 mg/kg/injection, schedule: Q04DX003 (ip), vehicle: saline) 108 % of control.

In the case of `O=C(NC(C(=O)O)c1ccccc1)OCc1ccccc1` (stereo unspecified), the T/C by setting is: (dose: 100.0 mg/kg/injection, schedule: Q01DX009 (ip), vehicle: saline with Tween-80) 111 % of control and 97 % of control; (dose: 200.0 mg/kg/injection, schedule: Q01DX009 (ip), vehicle: saline with Tween-80) 91 % of control and 92 % of control; (dose: 400.0 mg/kg/injection, schedule: Q01DX009 (ip), vehicle: saline with Tween-80) 89 % of control and 93 % of control.

For `O=C(O)CCCC1CCC(=O)CC1`, the T/C is, setting by setting: under setting [1], 109 % of control; under setting [2], 96 % of control; under setting [3], 100 % of control.

Consider `S=c1nc[nH]c2c1ncn2/N=C/c1ccccc1`, for which the T/C was 96 % of control (dose: 100.0 mg/kg/injection, schedule: Q01DX001 (ip), vehicle: other); 90 % of control (dose: 200.0 mg/kg/injection, schedule: Q01DX001 (ip), vehicle: other); 96 % of control (dose: 400.0 mg/kg/injection, schedule: Q01DX001 (ip), vehicle: other).

Regarding `CCCCCCOC(=O)C(N)Cc1ccc(O)c(N(CCCl)CCCl)c1` (stereo unspecified), the T/C is 123 % of control (dose: 0.01 mg/kg/injection, schedule: Q01DX009 (ip), vehicle: saline); 159 % of control (dose: 0.12 mg/kg/injection, schedule: Q01DX001 (ip), vehicle: saline); 163 % of control (dose: 0.3 mg/kg/injection, schedule: Q01DX009 (ip), vehicle: saline); 313 % of control (dose: 0.5 mg/kg/injection, schedule: Q01DX001 (ip), vehicle: saline); 221 % of control (dose: 0.6 mg/kg/injection, schedule: Q01DX009 (ip), vehicle: saline); 120 % of control (dose: 1.0 mg/kg/injection, schedule: Q01DX001 (ip), vehicle: saline). For the same molecule, the T/C by setting is: (dose: 1.1 mg/kg/injection, schedule: Q01DX009 (ip), vehicle: saline) 210 % of control; (dose: 2.2 mg/kg/injection, schedule: Q01DX001 (ip), vehicle: saline) 198 % of control; (dose: 2.5 mg/kg/injection, schedule: Q01DX001 (ip), vehicle: saline) 163 % of control; (dose: 3.3 mg/kg/injection, schedule: Q01DX001 (ip), vehicle: saline) 153 % of control; (dose: 5.0 mg/kg/injection, schedule: Q01DX001 (ip), vehicle: saline) 157 % of control and 236 % of control; (dose: 1.0 micrograms/kg/injection, schedule: Q01DX009 (ip), vehicle: saline) 104 % of control. Moreover, where the note is “dose: 8.0 micrograms/kg/injection, schedule: Q01DX009 (ip), vehicle: saline”, the T/C is 189 % of control.
